Test results: article PMC6222382, “A Potent Tyrosinase Inhibitor, (E)-3-(2,4-Dihydroxyphenyl)-1-(thiophen-2-yl)prop-2-en-1-one, with Anti-Melanogenesis Properties in α-MSH and IBMX-Induced B16F10 Melanoma Cells” (Molecules : A Journal of Synthetic Chemistry and Natural …, 2018)
Like-named read-outs stand apart in the source and are kept apart here.

Experiments:
[1] = molecular target: mushroom tyrosinase; test: Mushroom tyrosinase inhibitory assay (L-tyrosine or L-DOPA as substrate); type: biochemical; details: for IC50: mean ± SEM of triplicate experiments; for tyrosinase inhibitory activity toward L-DOPA (in words): at any of the tested concentrations
Method: The reaction mixtures were keep warm at 37 °C for 20 min. The absorbance of the mixture at 492 nm was measured using a microplate reader. The tyrosinase inhibitory activity (%) was calculated as (1 − Abssample/Abscontrol) × 100%.

[2] = system: B16F10 melanoma cells; test: Melanin contents in α-MSH and IBMX-induced B16F10 melanoma cells; type: cell-based, murine; details: α-MSH (5 μM) and IBMX (200 μM), 48 h, α-MSH and IBMX alone 171.30%
Method: (§1) Murine melanoma B16F10 cells were purchased from the Korean Cell Line Bank (Seoul, Korea). The cells were cultured in DMEM containing 10% FBS and 1% streptomycin, and then incubated at 37 °C with 5% CO2. The melanoma cells were plated at 95% confluency for all the experiments.
Cellular melanin content was determined as described previously. Cells were seeded in six-well culture plates (Nunc, Denmark) at 2 × 10^5 cells/well for 24 h. […] Cells were washed twice with PBS. After centrifugation, cell pellets were disrupted in 100 μL of 1N NaOH, and incubated at 60 °C for 1 h and mixed to solubilize the melanin. Absorbance at 405 nm was compared with a standard curve for synthetic melanin (TECAN, Salzburg, Austria).

[3] = system: intracellular tyrosinase in B16F10 melanoma cells; test: Cellular tyrosinase activity assay in α-MSH and IBMX-induced B16F10 melanoma cells (L-DOPA oxidation); type: cell-based, murine; details: α-MSH (5 μM) and IBMX (200 μM), 48 h, α-MSH and IBMX alone 310.39%
Method: as §1
Intracellular tyrosinase inhibitory activity assay was achieved by measuring the rate of oxidation of L-DOPA [44]. Cells at a density of 1 × 10^5 cells/well were plated in 6-well plates (Nunc, Denmark) and incubated overnight. […] The cells were washed with PBS and lysed in a solution containing 100 µL of 50 mM phosphate buffer (pH 6.5), 0.1 mM phenylmethylsulfonylfluoride (PMSF), and 1% Triton X-100. The cells lysates were employed in a deep freezer (−80 °C) for 1 h. After defrosting the cell lysates, the cellular extracts were purified by centrifugation at 12,000 rpm for 30 min at 4 °C. A total of 80 µL of supernatant and 20 µL of L-DOPA (2 mg/mL) were added to a 96-well plate, and the absorbance at a wavelength of 492 nm was measured every 10 min during 1 h using an ELISA plate reader (TECAN, Salzburg, Austria). Total protein content was determined using BCA protein assay reagent (Thermo Scientific, Rockford, IL, USA).

[4] = molecular target: mushroom tyrosinase; test: Enzyme kinetic analysis in mushroom tyrosinase inhibition (Lineweaver-Burk and Dixon plots); type: biochemical; details: for Ki: Dixon plot; for Inhibition type: Lineweaver-Burk plot
Method: In order to estimate the kinetic mechanism, two kinetic methods using Lineweaver-Burk and Dixon plots were used. Using Lineweaver-Burk double reciprocal plots [a plot of 1/enzyme velocity (1/V) vs. 1/substrate concentration (1/[S])], the type of inhibition was determined using various concentrations of L-tyrosine (0.5, 1 and 2 mM) and L-DOPA (0.5, 1, and 2 mM), as substrates, in the absence and presence of various concentrations of 1c (3.2–80 nM; for L-tyrosine, 0.4–10 μM; for L-DOPA). […] The concentrations of 1c were as follows: 3.2–80 nM; for L-tyrosine, 0.4–10 μM; for L-DOPA. The enzymatic procedures comprised of the formerly described tyrosinase test methods. The inhibition constant (Ki) was resolute using Dixon plots.

[5] = system: B16F10 melanoma cells; test: Cell viability, EZ-Cytox assay; type: cell-based, murine; details: concentrations up to 100 μM, 48 h
Method: as §1
Cell viability was assessed with the EZ-Cytox assay kit (Daeillab Service, Seoul, Korea) as previously described. In brief, B16F10 cells were seeded in 96-well plates (Corning, NY, USA) at a density of 1 × 10^4 cells/well for 24 h. The cells were fed fresh, serum-free DMEM that contained different concentrations (up to 100 μM) of 1c, and incubated for 24 h or 48 h. Then, 10 μL EZ-Cytox solution was added to each well and the cells were incubated for 2–4 h. The absorbance of cells in the absence of treatment was regarded as 100% cell survival. […] Thus, CC50 value of 1c were calculated by regression analysis.

[6] = substrate L-DOPA, read-out: IC50 (μM), L-DOPA as substrate (diphenolase / dopa oxidase)
[7] = substrate L-tyrosine, read-out: IC50 (μM), L-tyrosine as substrate (monophenolase / tyrosine hydroxylase)

Structure (SMILES)	IC50 [1, 6]	IC50 [1, 7]	melting point	tyrosinase inhibitory activity toward L-DOPA (in words) ([1]; substrate L-DOPA)	other results
O=C(/C=C/c1ccc(O)c(O)c1)c1cccs1 [1b, (E)-3-(3,4-Dihydroxyphenyl)-1-(thiophen-2-yl)prop-2-en-1-one]	103 ± 8.47 µM	75.7 ± 2.46 µM	182.5 to 185.7 °C	–	–
O=C(/C=C/c1ccc(O)c(Br)c1)c1cccs1 [1g, (E)-3-(3-Bromo-4-hydroxyphenyl)-1-(thiophen-2-yl)prop-2-en-1-one]	112 ± 14.3 µM	–	195.2 to 199.6 °C	–	tyrosinase inhibitory activity toward L-tyrosine (in words) ([1]; substrate L-tyrosine): inactive
O=C(/C=C/c1cc(Br)c(O)c(Br)c1)c1cccs1 [1h, (E)-3-(3,5-Dibromo-4-hydroxyphenyl)-1-(thiophen-2-yl)prop-2-en-1-one]	> 200 µM	–	269.3 to 272 °C	did not inhibit tyrosinase activity	tyrosinase inhibitory activity toward L-tyrosine (in words) ([1]; substrate L-tyrosine): inactive
O=c1cc(CO)occ1O [Kojic acid, kojic acid, reference compound]	–	–	–	–	melanin contents ([2]; 10 μM): 118.19%; intracellular tyrosinase activity ([3]; 10 μM): 225.54%
COc1cc(/C=C/C(=O)c2cccs2)cc(OC)c1O [1f, (E)-3-(4-Hydroxy-3,5-dimethoxyphenyl)-1-(thiophen-2-yl)prop-2-en-1-one]	> 200 µM	77.9 ± 8.74 µM	143.6 to 147.3 °C	did not inhibit tyrosinase activity	–
O=C(/C=C/c1ccc(O)cc1O)c1cccs1 [1c, (E)-3-(2,4-Dihydroxyphenyl)-1-(thiophen-2-yl)prop-2-en-1-one]	0.93 ± 0.22 µM	–	–	–	melanin contents ([2]; 0.04 μM): 107.29%; melanin contents ([2]; 0.2 μM): 98.15%; melanin contents ([2]; 1 μM): 88.09%; Ki ([4]; substrate L-DOPA): 1.76 µM; Inhibition type ([4]; substrate L-DOPA): competitive inhibition; Ki ([4]; substrate L-tyrosine): 0.00501 µM; Inhibition type ([4]; substrate L-tyrosine): competitive inhibition; intracellular tyrosinase activity ([3]; 0.04 μM): 225.78%; intracellular tyrosinase activity ([3]; 0.2 μM): 157.79%; intracellular tyrosinase activity ([3]; 1 μM): 132.71%; cytotoxicity (cell viability) [5]: did not show any cytotoxicity
O=C(/C=C/c1ccc(O)cc1)c1cccs1 [1a, (E)-3-(4-Hydroxyphenyl)-1-(thiophen-2-yl)prop-2-en-1-one]	60.1 ± 7.85 µM	46.2 ± 0.55 µM	–	–	–
COc1cc(/C=C/C(=O)c2cccs2)ccc1O [1d, (E)-3-(4-Hydroxy-3-methoxyphenyl)-1-(thiophen-2-yl)prop-2-en-1-one]	> 200 µM	98.8 ± 2.11 µM	132.8 to 135.2 °C	did not inhibit tyrosinase activity	–
COc1ccc(/C=C/C(=O)c2cccs2)cc1O [1e, (E)-3-(3-Hydroxy-4-methoxyphenyl)-1-(thiophen-2-yl)prop-2-en-1-one]	28.7 ± 1.98 µM	17.4 ± 1.81 µM	–	–	–
